Columns and labels:
[1] = system: natural aging-induced menopausal animal model; assay: antidepressant efficacy verification experiment in natural aging-induced menopausal animal model (summary); assay type: in vivo; conditions: antidepressant refractory animal model
Excerpt: Accordingly, the Salvia miltiorrhiza extract of the present disclosure may be administered to patients with resistance to benzodiazepine or imipramine, and may be used to treat depression that is resistant to the drug.

[2] = system: ER (female hormone receptor); assay: female hormone receptor (ER) expression in MCF-7 BUS cell line by real-time PCR; assay type: cell-based; conditions: each ingredient 10 μg/mL, 72 hours
Method: Ingredients included in the Salvia miltiorrhiza extract obtained in Example embodiment 1 were confirmed, and in ingredients cryptotanshinone, danshensu, isotanshinone, salvianolic acid B, and tanshinone IIA, female hormone regulating ability was confirmed. An MCF-7 BUS cell line used in the experiment was received from Tufts University in the United States, and incubated in a CO2 incubator maintained at 37° C. and 5% CO2 by using a Dulbecco modified eagle medium (DMEM) (Gibco, USA) added with 10% fetal bovine serum (Gibco, USA) and 1% penicillin/streptomycin (Gibco, USA).
In the experiment, in order to evaluate the female hormone regulatory ability, the sensitivity to estrogen, one of the female hormones, was measured using the MCF-7 BUS cell line, and first, the MCF-7 BUS cell line was dispensed at 1×10^5 cells/well in a 60 mm culture dish, and then incubated in a CO2 incubator maintained at 37° C. and 5% CO2.
After incubation for 24 hours, each ingredient was treated at a concentration of 10 μg/mL, and 17β-Estradiol (E2) was treated with 10^−10 M as a positive control.
At this time, each primer was prepared by Takara, and ER was prepared with Forward primer: […] […] A CT value obtained through RT-PCR was converted into ΔCT, and this ΔCT value was analyzed through a change rate of an experimental group with respect to the control group, which was illustrated in FIG. 1.

[3] = stability (content) of ingredients included in the Salvia miltiorrhiza extract on storage; assay type: physicochemical; conditions: for Content (mg/g) of ingredient after 5 days of storage at room temperature of extract: 5 days at room temperature; for Content (mg/g) of ingredient in Salvia miltiorrhiza extract: before storage
Method: When the Salvia miltiorrhiza extract was stored at 95° C. for 0 hour, 1 hour, 2 hours, 3 hours, 4 hours and 6 hours, in order to confirm whether the stability of 5 types of ingredients of which the female hormone regulatory ability has been confirmed in Example embodiment 2-1 above was maintained, the ingredient contents of the stored samples were analyzed by time. In addition, when the Salvia miltiorrhiza extract was stored at room temperature for 1 day, 2 days, 3 days, 4 days and 5 days, the stability of the ingredients was confirmed through analysis of the contents of 5 types of ingredients included in the Salvia miltiorrhiza extract.
In addition, results of comparing the content of each ingredient included in the Salvia miltiorrhiza extract at various concentrations (0, 50, 70, and 100% ethanol) and the content after 5 days of storage at room temperature were shown together in Table 1 below.

| Compound | antidepressant effect in natural aging-induced menopausal animal model [1] | female hormone receptor regulating effect (ER mRNA change rate, FIG. 1) [2] | Content (mg/g) of ingredient after 5 days of storage at room temperature of extract ([3]; extract made with 0% EtOH) | Content (mg/g) of ingredient in Salvia miltiorrhiza extract ([3]; extract made with 0% EtOH) | Content (mg/g) of ingredient after 5 days of storage at room temperature of extract ([3]; extract made with 50% EtOH) | Content (mg/g) of ingredient in Salvia miltiorrhiza extract ([3]; extract made with 50% EtOH) | Content (mg/g) of ingredient after 5 days of storage at room temperature of extract ([3]; extract made with 70% EtOH) | Content (mg/g) of ingredient in Salvia miltiorrhiza extract ([3]; extract made with 70% EtOH) | Content (mg/g) of ingredient after 5 days of storage at room temperature of extract ([3]; extract made with 100% EtOH) | Content (mg/g) of ingredient in Salvia miltiorrhiza extract ([3]; extract made with 100% EtOH) |
| --- | --- | --- | --- | --- | --- | --- | --- | --- | --- | --- |
| CN(C)CCCN1c2ccccc2CCc2ccccc21 [imipramine] | insufficient antidepressant effect |  |  |  |  |  |  |  |  |  |
| O=C(O)[C@H](O)Cc1ccc(O)c(O)c1 [Danshensu] |  | most remarkable female hormone receptor regulating effect | 0.32 mg/g | 0.34 mg/g | 1.22 mg/g | 1.28 mg/g | 24.19 mg/g | 25.17 mg/g | 17.33 mg/g | 18.32 mg/g |
| O=C(/C=C/c1ccc(O)c2c1[C@H](C(=O)O[C@H](Cc1ccc(O)c(O)c1)C(=O)O)[C@@H](c1ccc(O)c(O)c1)O2)O[C@H](Cc1ccc(O)c(O)c1)C(=O)O [Salvianolic acid B] |  |  | 18.33 mg/g | 21.2 mg/g | 26.21 mg/g | 38.23 mg/g | 23.21 mg/g | 33.1 mg/g | 15.27 mg/g | 20.3 mg/g |
| Cc1coc2c1C(=O)C(=O)c1c-2ccc2c1CCCC2(C)C [Tanshinone IIA] |  |  | 0.65 mg/g | 1.33 mg/g | 4.11 mg/g | 5.21 mg/g | 4.33 mg/g | 7.22 mg/g | 5.24 mg/g | 8.33 mg/g |
| Cc1coc2c1C(=O)c1ccc3c(C)cccc3c1C2=O [Isotanshinone] |  |  | 0.99 mg/g | 2.22 mg/g | 5.62 mg/g | 12.31 mg/g | 12.11 mg/g | 14.23 mg/g | 10.33 mg/g | 12.22 mg/g |
